{
  "source": "patent US20060205949A1",
  "about": "“Crystalline forms of a biphenyl compound” (THERAVANCE, INC., priority 2005, published 2006)",
  "key": {"[1]": {"details": "pH 4.5", "protocol": "A solution was prepared with 0.1 mg/mL freebase equivalents (using a crystalline mononapadisylate salt prepared as described in Example 2) in 10 mM citrate buffered normal saline, pH 4.5. […] Less than 0.5% degradation was observed after storage for one month at 40° C./75% RH."}, "[2]": {"details": "Pre-Micronization"}, "[3]": {"assay": "Differential scanning calorimetry (thermal stability)", "assay_type": "physicochemical", "details": "DSC trace, 10° C./min", "method": "Differential scanning calorimetry (DSC) was performed using a TA Instruments Model Q-10 module with a Thermal Analyst controller. Data were collected and analyzed using TA Instruments Thermal Solutions software. A sample of about 1 mg was accurately weighed into an aluminum pan with lid. The sample was evaluated using a linear heating ramp of 10° C./min from ambient temperature to approximately 250° C. The DSC cell was purged with dry nitrogen during use."}, "[4]": {"assay": "Dynamic moisture sorption (DMS) assessment", "assay_type": "physicochemical", "protocol": "A dynamic moisture sorption (DMS) assessment (also known as a moisture sorption-desorption profile) was performed for samples of the crystalline naphthalene-1,5-disulfonic acid salts using a VTI atmospheric microbalance, SGA-100 system (VTI Corp., Hialeah, Fla. 33016). A sample size of approximately 10 mg was used and the humidity was set at the ambient value at the start of the analysis. A typical DMS analysis consisted of three scans: ambient to 2% relative humidity (RH), 2% RH to 90% RH, 90% RH to 5% RH at a scan rate of 5% RH/step. The mass was measured every two minutes and the RH was changed to the next value (+/−5% RH) when the mass of the sample was stable to within 0.01% for 5 consecutive points."}, "[5]": {"details": "6 weeks; −20° C. closed, 40° C./75% RH open and closed, 50° C. closed; all conditions", "protocol": "Samples of the crystalline mononapadisylate salt of Example 2, about 200 mg each, were stored in multiple 3 mL borosilicate vials at −20° C. (closed container), 40° C./75% RH (open and closed container), and at 50° C. (closed container). At specific intervals, the entire contents of a representative vial was analyzed by the following HPLC method:\nColumn: Agilent Zorbox SB-C18, 4.6×250 mm, 5 μm; Mobile Phase A: 98% water, 2% ACN, 0.1% TFA; Mobile Phase B: 10% water, 90% ACN; 0.1% TFA; Flow rate: 1 mL/min; Injection Volume: 20 μL; Detector: 220 nm; Gradient-Time in minutes (% Mobile Phase B): 0.0 (10); 4.00 (20); 26.00 (28); 34.40 (100); 38.40 (100); 38.50 (10); and 45.00 (10). […] These stock solutions were diluted to 1 mg/mL in 10% ACN for injection onto the HPLC."}},
  "data": [
    {"smiles": "O=C(CCN1CCC(OC(=O)Nc2ccccc2-c2ccccc2)CC1)NCCCCCNCc1ccc(O)cc1.O=S(=O)(O)c1cccc2c(S(=O)(=O)O)cccc12", "note": "[Crystalline Mononapadisylate Salt of Biphenyl-2-ylcarbamic Acid 1-2-[5-(4-Hydroxybenzylamino)pentylcarbamoyl]ethyl]piperidin-4-yl Ester]", "values": [
      {"measurement": "degradation in solution", "setting": "[1]; 0.1 mg/mL freebase equivalents in 10 mM citrate buffered normal saline, one month at 40° C./75% RH", "value": "Less than 0.5%"},
      {"measurement": "solubility", "setting": "[1]; 10 mM citrate buffered normal saline", "value": "approximately 0.4 mg/mL"},
      {"measurement": "particle size D (v, 0.1)", "setting": "[2]", "value": 2.5, "unit": "μm"},
      {"measurement": "particle size D (v, 0.5)", "setting": "[2]", "value": 9.4, "unit": "μm"},
      {"measurement": "particle size D (v, 0.9)", "setting": "[2]", "value": 22.1, "unit": "μm"},
      {"measurement": "thermal decomposition temperature (no thermal decomposition below)", "setting": "[3]", "value": "≥ 225", "unit": "°C"},
      {"measurement": "sorption/desorption profile and hygroscopicity", "setting": "[4]; DMS trace", "value": "reversible sorption/desorption profile with low hygroscopicity"},
      {"measurement": "weight gain", "setting": "[4]; exposed to 2-90% RH", "value": 4.5, "unit": "%"},
      {"measurement": "weight gain", "setting": "[4]; humidity range of 40-70% RH", "value": 0.7, "unit": "%"},
      {"measurement": "weight gain", "setting": "[4]; humidity range of 40-75% RH", "value": 0.8, "unit": "%"},
      {"measurement": "weight gain", "setting": "[4]; humidity range of 40-75% RH, listed as crystalline mononapadisylate salt of the compound of formula I", "value": "less than 0.8%"},
      {"measurement": "change in chemical purity (HPLC)", "setting": "[5]", "value": "no detectable change"},
      {"measurement": "change in the appearance of the material", "setting": "[5]", "value": "no observable change"}
    ]}
  ]
}
